# Results taken from US12521389B2, “Therapeutic approach to lung disease” (The Regents of the University of California, priority 2019, dated 2026).
# Entries after “also recorded” stand apart in the source; their conditions may differ.
# Experiments:
# Type in all cases: in vivo
# [1] = target: T1, CGRP receptor (Mus musculus, UniProt Q9R1W5+Q9WTJ5); assay: Lung wet-to-dry ratio (pulmonary edema) after intranasal BIBN-4096 in NEHI mouse model; settings: Nkx2-1^L/L mutants; intranasal 10 ul of 0.3 mg/ml at P10, P12, P14, P16, P18; analyzed at P22; vs vehicle DMSO
# T1 construct: from tissue; host or cells: Live mouse pups on a B6 background (Nkx2-1 R191L NEHI model and control genotypes); lung, intranasal dosing
# Method: Each lung was removed from sacrificed mouse right after euthanasia. Excessive blood was removed by kimwipe and wet weight mw was measured right after dissection. The lung was then placed on the foil at 70° C. for 24 hours. Dry weight […] was then measured by reweighing the dried lung. Wet-to-dry ratio was calculated as: W/D ratio=mw/md.
# (§1) BIBN-4096 (Fisher Scientific #45-611-0) was dissolved in 100% DMSO (Sigma-Aldrich D2650) and further diluted to working solution with saline before use. 10 ul of 0.3 mg/ml BIBN-4096 was intranasally administrated to pups at P10, P12, P14, P16 and P18.
# [2] = target: T1, CGRP receptor; assay: Body size / weight gain after intranasal BIBN-4096 in NEHI mouse model; settings: analyzed at P22
# Method: as §1
# [3] = target: T1, CGRP receptor; assay: Oxygen saturation (SpO2) by pulse-ox after intranasal BIBN-4096 in NEHI mouse model; settings: Nkx2-1^L/L mutants; intranasal 10 ul of 0.3 mg/ml at P10-P18; analyzed at P22; vs vehicle DMSO
# Method: Pups were shaved and […] by isoflurane while pulse-ox (MouseOxPlus, Starr Life Sciences) was performing. The SpO2 reads were recorded after 5 minutes of stable measurement.
# as §1
# T1 sequence (Q9R1W5 23-463): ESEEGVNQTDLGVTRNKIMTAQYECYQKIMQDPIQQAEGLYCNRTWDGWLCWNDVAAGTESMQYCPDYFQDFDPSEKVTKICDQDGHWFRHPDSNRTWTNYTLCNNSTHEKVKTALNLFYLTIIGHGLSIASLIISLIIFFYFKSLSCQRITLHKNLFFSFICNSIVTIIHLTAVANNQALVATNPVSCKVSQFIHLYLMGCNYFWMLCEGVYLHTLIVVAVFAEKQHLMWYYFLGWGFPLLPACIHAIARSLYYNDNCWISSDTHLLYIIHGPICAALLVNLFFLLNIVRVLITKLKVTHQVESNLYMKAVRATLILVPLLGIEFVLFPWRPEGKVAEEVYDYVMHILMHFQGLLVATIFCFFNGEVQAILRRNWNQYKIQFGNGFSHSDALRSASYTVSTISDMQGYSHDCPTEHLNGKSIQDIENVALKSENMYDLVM
# T1 sequence (Q9WTJ5 27-148): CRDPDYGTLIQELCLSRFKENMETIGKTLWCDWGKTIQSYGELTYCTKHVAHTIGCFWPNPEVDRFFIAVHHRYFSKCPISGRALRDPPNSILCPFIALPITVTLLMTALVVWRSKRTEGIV
smiles,measurement,setting,value
"NCCCC[C@H](NC(=O)[C@@H](Cc1cc(Br)c(O)c(Br)c1)NC(=O)N1CCC(N2Cc3ccccc3NC2=O)CC1)C(=O)N1CCN(c2ccncc2)CC1 [BIBN-4096, N-((1R)-2-(((1S)-5-amino-1-((4-(pyridin-4-yl)piperazin-1-yl)carbonyl)pentyl)amino)-1-(3,5-dibromo-4-hydroxybenzyl)-2-oxoethyl)-4-(2-oxo-1,4-dihydroquinazolin-3 (2H)-yl) piperidine-1-carboxamide]",Lung wet-to-dry ratio (pulmonary edema),[1],clear reversal; also recorded: attenuation of fluid in lung
same,Body size / weight gain,"[2]; Nkx2-1^L/L mutants, intranasal 10 ul of 0.3 mg/ml at P10-P18, vs vehicle DMSO",clear reversal; also recorded: improved size
same,Effects of treatment in control genotype groups,"[2]; control genotype groups, intranasal P10-P18, vs vehicle DMSO (FIG. 9B)",did not lead to detectable effects
same,Oxygen saturation measured by pulse-ox (gas-exchange),[3],clear reversal; also recorded: improved gas-exchange efficiency
